The experiment concerns the target T1, human MRGPRX2 (Homo sapiens, UniProt Q96LB1).
T1 construct: expressed in transfected cells; host or cells: FlpIn TRex HEK293 (TRex-MRGPRX2-HEK), doxycycline-induced
T1 sequence (Q96LB1 1-330): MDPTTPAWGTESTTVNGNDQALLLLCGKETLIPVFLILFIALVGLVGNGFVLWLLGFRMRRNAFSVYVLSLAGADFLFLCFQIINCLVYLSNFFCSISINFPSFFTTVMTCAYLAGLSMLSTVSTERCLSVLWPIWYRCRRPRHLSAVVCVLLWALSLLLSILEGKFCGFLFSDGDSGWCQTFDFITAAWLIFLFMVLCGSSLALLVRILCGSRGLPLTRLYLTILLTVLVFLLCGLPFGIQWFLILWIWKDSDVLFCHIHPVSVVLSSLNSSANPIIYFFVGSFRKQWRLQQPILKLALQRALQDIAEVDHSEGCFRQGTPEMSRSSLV
Put plainly: MRGPRX2 Activity Assay (IP-1 HTRF, antagonist mode). In kind it is cell-based. As to conditions: FlpIn TRex-MRGPRX2-HEK293 cells; versus 1 μM Cortistatin-14 agonist; 30 minutes preincubation. How it is done: FlpIn TRex-MRGPRX2-HEK293 cells (herein TRex-MRPGRX2-HEK) stably transfected to express human MRGPRX2 were maintained at 37° C. with 5% CO2 and grown in DMEM supplemented with 10% FBS, 1% L-Glutamate, 1% penicillin/streptomycin, 100 ug/mL Hygromycin B, and 15 ug/mL Blasticidin.
GOI (MRGPRX2) expression was induced with 100 ng/mL of Doxycycline 18-24 hours prior to experiment, in flask. On the day of experiment, cells were lifted with TripLE Express and seeded in 384-well white walled opaque bottomed, assay plates, at 8,000 cells per well in 5 uL freshly made assay buffer (HBSS, 20 mM HEPES, 0.1% BSA and 10 mM LiCl). Compounds solubilized in 100% DMSO at 30 mM were serially diluted (1:4) first in 100% DMSO, and an intermediate plate of assay buffer was used to establish a final top concentration of 30 uM (in assay plate). Final DMSO concentration was kept constant at 1% across assay plates. […], at 30 mM stock concentration was solubilized in HBSS+0.1% BSA, stored at −20° C. in 5 μL aliquots and discarded after one freeze-thaw cycle. […].
Antagonist equilibrium was established with 30 minutes preincubation, followed by no wash, direct addition, and stimulation of agonist for 1 hour at 37° C./5% CO2. IP-1 standards and HTRF detection reagents were added according to the IP-one Gq kit protocol purchased from CisBio (part number 62IPAPEJ). The plate was read on an EnVision XCite plate reader. The HTRF ratio was then calculated from raw data (channel1/channel2×10,000) and analyzed using either GraphPad Prism or a custom Python script to calculate IC50 using Log[Antagonist] vs. response (4 parameter) nonlinear regression.
Background: In TR-FRET formats the signal depends on donor and acceptor labels being close together.

Some results are limits rather than exact numbers.

One may read the IC50 as the midpoint of a concentration-inhibition curve. Read a high IC50 as a need for much substance.

With `C[C@@H](C(=O)Nc1cn2c(n1)CC[C@H]2c1cc(F)cc(F)c1)N1CCC(F)(F)[C@@H](c2cc[n+]([O-])cc2)C1` (single isomer, unassigned) [Compound 487], the 50% inhibitory concentration (IC50) came to 13800 nM.
With “(S)-2-((S)-4,4-difluoro-3-(6-oxo-1,6-dihydropyridin-3-yl)piperidin-1-yl)-N-(1-(3,5-difluorobenzyl)-1H-imidazol-4-yl)propanamide [Compound 76]” the figure was 2220 nM; with `C[C@@H](C(=O)Nc1cn(Cc2cccc(Cl)c2F)cn1)N1CCC(F)(F)[C@@H](c2cc[n+]([O-])cc2)C1` [Compound 64, 4-((S)-1-((S)-1-((1-(3-chloro-2-fluorobenzyl)-1H-imidazol-4-yl)amino)-1-oxopropan-2-yl)-4,4-difluoropiperidin-3-yl)pyridine 1-oxide], 78 nM.
For `C[C@H](C(=O)Nc1noc(Cc2cc(F)cc(F)c2)n1)N1CCC(F)(F)[C@@H](c2cc[n+]([O-])cc2)C1` (single isomer, unassigned) [Compound 57] the value was more than 10000 nM; for `C[C@@H](C(=O)Nc1cn2c(n1)[C@H](O)C[C@H]2c1cc(F)cc(F)c1)N1CCC(F)(F)[C@@H](c2ccc(=O)[nH]c2)C1` (single isomer, unassigned) [Compound 518], more than 30000 nM.
`C[C@@H](C(=O)Nc1cn(Cc2ccncc2Cl)cn1)N1CCC(F)(F)[C@@H](c2cc[n+]([O-])cc2)C1` [Compound 63, 4-((S)-1-((S)-1-((1-((3-chloropyridin-4-yl)methyl)-1H-imidazol-4-yl)amino)-1-oxopropan-2-yl)-4,4-difluoropiperidin-3-yl)pyridine 1-oxide] returned an IC50 of 114 nM.
Turning to `C[C@@H](C(=O)Nc1cn2c(n1)CC[C@@H]2c1cc(F)cc(F)c1)N1CCC(F)(F)[C@](C)(c2cc[n+]([O-])cc2)C1` (single isomer, unassigned) [Compound 520], the IC50 was determined as 129 nM.
With `C[C@@H](C(=O)Nc1cn(Cc2cc(F)cc(F)c2)c(CF)n1)N1CCC(F)(F)[C@@H](c2cc[n+]([O-])cc2)C1` (single isomer, unassigned) [Compound 60] the figure was more than 30000 nM.
With `C[C@@H](C(=O)Nc1cn2c(n1)CC[C@@H]2c1cc(F)cc(F)c1)N1CCC(F)(F)[C@H](c2cc[n+]([O-])c(CO)c2)C1` (single isomer, unassigned) [Compound 526] the figure was 9.8 nM; with `C[C@H](C(=O)Nc1nc(Cc2cc(F)cc(F)c2)no1)N1CCC(F)(F)[C@@H](c2cc[n+]([O-])cc2)C1` (single isomer, unassigned) [Compound 59], 432 nM; with `C[C@@H](C(=O)Nc1cn(Cc2cc(F)cc(F)c2)c(C(F)F)n1)N1CCC(F)(F)[C@H](c2c[nH]c(=O)c(CO)c2)C1` (single isomer, unassigned) [Compound 491], 1640 nM.
With `C[C@@H](C(=O)Nc1cn2c(n1)CC[C@@H]2c1cc(F)cc(F)c1)N1CCC2(CC2)[C@H](c2cc[n+]([O-])cc2)C1` (single isomer, unassigned) [Compound 522] the figure was 229 nM.
On to `C[C@@H](C(=O)Nc1cn(Cc2cc(F)cc(F)c2)cn1)N1CCC(F)(F)[C@@H](c2ccc(=O)n(C)c2)C1` (single isomer, unassigned) [Compound 67], for which the IC50 amounted to 4330 nM.
For `C[C@@H](C(=O)Nc1cn2c(n1)CC[C@@H]2c1cc(F)cc(F)c1)N1CCCCC1` (single isomer, unassigned) [Compound 497] the value was more than 30000 nM.
The molecule `C[C@@H](C(=O)Nc1cn(Cc2cccc(F)c2Cl)cn1)N1CCC(F)(F)[C@@H](c2cc[n+]([O-])cc2)C1` [Compound 51, 4-((S)-1-((S)-1-((1-(2-chloro-3-fluorobenzyl)-1H-imidazol-4-yl)amino)-1-oxopropan-2-yl)-4,4-difluoropiperidin-3-yl)pyridine 1-oxide] returned an IC50 of 34 nM.
In the case of `C[C@@H](C(=O)Nc1nc(Cc2cc(F)cc(F)c2)no1)N1CCC(F)(F)[C@@H](c2cc[n+]([O-])cc2)C1` (single isomer, unassigned) [Compound 58], the IC50 is more than 10000 nM.

These data come from patent US20250122171A1, “Substituted Amine Compounds, Compositions and Methods of Use” (Deep Apple Therapeutics, Inc., priority 2023, published 2025).
